Reference: patent publication US8431559B2, “Treatment of hot flashes” (priority 2008, dated 2013)
Like-named read-outs stand apart in the source and are kept apart here.

How the values were obtained:
[1] = system: bone marrow; assay: in vivo bone marrow micronucleus test
[2] = system: women of reproductive age; assay: Intranasal spray 1600 nanograms in women of reproductive age, core body temperature and sympathoadrenergic tone; format: in vivo, human; conditions: 1600 nanograms intranasal
Description: In another test also in women of reproductive age, intranasal delivery of a nasal spray containing 1600 nanograms of 16α,17α-epoxy-10β-hydroxyestr-4-en-3-one (one administration per nostril by a Valois intranasal spray pump of 50 μL of an aqueous solution of 16 μg/mL 16α,17α-epoxy-10β-hydroxyestr-4-en-3-one with 2% propylene glycol and 2% ethanol) caused a rapid (0.5 to 4 minute latency) decrease in core body temperature of 1±0.23° C. that persisted for 9±2.5 minutes.

[3] = system: women of reproductive age; assay: Intranasal spray 500 nanograms in 14 women of reproductive age, autonomic and physiologic effects vs vehicle; format: in vivo, human; conditions: 500 nanograms intranasal, compared to the vehicle
[4] = Ames reverse mutation assay; format: cell-based
[5] = Preclinical pharmacokinetic studies, intravenous doses; format: in vivo, rats, rabbits, or dogs; conditions: single repeated intravenous doses up to 2.5 mg/kg
[6] = system: pregnant rabbits; assay: Reproductive toxicity studies in pregnant rabbits; format: in vivo; conditions: intravenous doses up to 2.5 mg/kg/day during the period of organogenesis
[7] = system: rats, mice, rabbits and dogs; assay: Acute and multidose (28 day) toxicity studies, intranasal and intravenous; format: in vivo; conditions: single intranasal up to 100 μg/rat, 400 μg/rabbit, 600 μg/dog; repeated up to 50 μg/rat/day, 300 μg/dog/day; intravenous single and repeated up to 2.5 mg/kg
[8] = Preclinical pharmacokinetic studies, intranasal doses; format: in vivo; conditions: repeated or single escalating intranasal doses up to 100 μg/rat, 400 μg/rabbit, 600 μg/dog
[9] = system: hot flashes; conditions: crossover analysis; cited from earlier work
[10] = system: hot flashes; conditions: vs. 29% for placebo; cited from earlier work
[11] = system: hot flashes; conditions: placebo response rate 37.8%, cited from earlier work
[12] = system: hot flashes; conditions: oral and transdermal clonidine; cited from earlier work
[13] = system: hot flashes; conditions: cited from earlier work
[14] = system: hot flashes; conditions: 27% for placebo, cited from earlier work

C[C@]12CC[C@H]3[C@@H](CCC4=CC(=O)CC[C@@]43O)[C@@H]1C[C@H]1O[C@H]12 [16α,17α-epoxy-10β-hydroxyestr-4-en-3-one, 16α,17α-Epoxy-10β-hydroxyestr-4-en-3-one]
mutagenic or clastogenic potential [1]: no evidence of mutagenic or clastogenic potential | decrease in core body temperature [2]: 1±0.23 °C | persistence of decrease in core body temperature [2]: 9 ± 2.5 min | time to reduced tone of the sympathoadrenergic system (physiologic sinus arrhythmia) [2]: ≤ 5 minutes | cardiac frequency [3]: not statistically significant increase | core body temperature [3]: statistically significant decreases | electrodermal activity (skin conductance) [3]: statistically significant decreases | electromyographic activity [3]: statistically significant decreases | respiratory frequency [3]: statistically significant decreases | vagal tone [3]: statistically significant increases | mutagenic or clastogenic potential [4]: no evidence of mutagenic or clastogenic potential | plasma concentrations [5]: generally were dose-proportional and decreased rapidly | effects on maternal or litter parameters [6]: no adverse effects on maternal or litter parameters | tolerability (deaths, adverse clinical signs, effects on laboratory or pathology parameters) [7]: well tolerated in all species tested | systemic exposure [8]: very low systemic exposure

CNCCC(Oc1ccc(C(F)(F)F)cc1)c1ccccc1 (stereo not drawn) [Fluoxetine]
reduction in hot flash frequency over the placebo condition [9]: ~20%

NCC1(CC(=O)O)CCCCC1 [Gabapentin]
reduction of hot flash frequency [10]: 45%

Fc1ccc([C@@H]2CCNC[C@H]2COc2ccc3c(c2)OCO3)cc1 [Paroxetine]
decrease of hot flash composite scores ([11]; 12.5 mg/day): 62% | decrease of hot flash composite scores ([11]; 25.0 mg/day): 65%

Clc1cccc(Cl)c1N=C1NCCN1 [clonidine, Clonidine]
reductions in hot flash frequency compared with placebo [12]: smaller, but significant reductions | reduction of hot flash frequency ([13]; oral clonidine): 46% | reduction of hot flash frequency ([13]; transdermal clonidine): 80%

COc1ccc(C(CN(C)C)C2(O)CCCCC2)cc1 (stereo not drawn) [venlafaxine, Venlafaxine]
reduction of hot flash scores from baseline ([14]; 37.5 mg/day): 37% | reduction of hot flash scores from baseline ([14]; 75 and 150 mg/day): 60%
